The results in this text go back to patent US10669284B2, “Fused thiazolopyrimidine derivatives as MNKS inhibitors” (LIFEARC, priority 2015, dated 2020).

Each structure is given as a SMILES string.

Experiment [1] deals with FGFR4 (Homo sapiens, UniProt P22455). Put plainly: Kinase selectivity screen FGFR4. Particulars: read-out: % inhibition of FGFR4.
Experiment [2] concerns the target T1, CHEK1 (Homo sapiens, UniProt O14757).
T1 sequence (O14757 1-476): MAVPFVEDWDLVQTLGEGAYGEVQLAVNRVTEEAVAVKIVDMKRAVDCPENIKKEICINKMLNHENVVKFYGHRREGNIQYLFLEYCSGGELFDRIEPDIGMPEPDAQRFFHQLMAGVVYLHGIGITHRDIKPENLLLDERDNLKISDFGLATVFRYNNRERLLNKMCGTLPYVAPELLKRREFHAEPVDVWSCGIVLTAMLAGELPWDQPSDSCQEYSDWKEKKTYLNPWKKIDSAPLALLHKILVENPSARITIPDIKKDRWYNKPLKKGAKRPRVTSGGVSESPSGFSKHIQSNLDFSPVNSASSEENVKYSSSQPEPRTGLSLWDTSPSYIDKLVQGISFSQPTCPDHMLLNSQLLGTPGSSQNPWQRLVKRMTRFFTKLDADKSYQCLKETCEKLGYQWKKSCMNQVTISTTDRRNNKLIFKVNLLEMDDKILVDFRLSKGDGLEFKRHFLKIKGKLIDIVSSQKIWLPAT
In words: Kinase selectivity screen CHEK1. Particulars: read-out: % inhibition of CHEK1.

The target of experiment [3] is MAP3K9 (Homo sapiens, UniProt P80192). Put plainly: Kinase selectivity screen MAP3K9. Particulars: read-out: % inhibition of MAP3K9.
Chain of MAP3K9 (P80192 whole entry, species assumed): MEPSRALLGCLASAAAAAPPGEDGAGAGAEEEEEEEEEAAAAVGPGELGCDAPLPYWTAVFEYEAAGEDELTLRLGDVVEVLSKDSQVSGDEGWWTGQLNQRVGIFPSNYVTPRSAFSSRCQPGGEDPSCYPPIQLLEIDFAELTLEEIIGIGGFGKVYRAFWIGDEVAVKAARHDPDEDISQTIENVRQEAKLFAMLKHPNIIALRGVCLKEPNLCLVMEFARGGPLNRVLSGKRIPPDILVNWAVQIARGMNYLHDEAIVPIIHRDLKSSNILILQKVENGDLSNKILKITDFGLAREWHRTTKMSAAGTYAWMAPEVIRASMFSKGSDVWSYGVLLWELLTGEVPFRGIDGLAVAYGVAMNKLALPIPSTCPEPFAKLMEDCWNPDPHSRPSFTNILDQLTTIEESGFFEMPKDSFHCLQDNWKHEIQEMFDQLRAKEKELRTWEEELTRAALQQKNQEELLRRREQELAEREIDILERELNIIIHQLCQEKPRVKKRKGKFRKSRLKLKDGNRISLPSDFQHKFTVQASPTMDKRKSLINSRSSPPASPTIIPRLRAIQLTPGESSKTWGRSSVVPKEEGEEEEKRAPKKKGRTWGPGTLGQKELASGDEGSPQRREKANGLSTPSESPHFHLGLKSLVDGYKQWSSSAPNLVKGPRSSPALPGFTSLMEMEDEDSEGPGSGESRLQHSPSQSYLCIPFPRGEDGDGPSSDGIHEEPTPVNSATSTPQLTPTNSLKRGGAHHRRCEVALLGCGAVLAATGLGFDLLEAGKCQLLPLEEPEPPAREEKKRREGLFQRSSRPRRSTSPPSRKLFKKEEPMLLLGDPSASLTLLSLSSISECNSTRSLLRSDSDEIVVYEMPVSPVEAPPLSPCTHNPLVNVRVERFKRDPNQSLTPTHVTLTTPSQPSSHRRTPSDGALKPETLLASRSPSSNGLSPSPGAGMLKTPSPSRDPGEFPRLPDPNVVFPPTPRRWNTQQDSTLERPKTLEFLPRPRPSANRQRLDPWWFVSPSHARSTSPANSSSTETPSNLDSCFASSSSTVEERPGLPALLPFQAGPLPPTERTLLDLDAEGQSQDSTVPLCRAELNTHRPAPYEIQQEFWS
Experiment [4] concerns the target EPHA5 (Homo sapiens, UniProt P54756). In words: Kinase selectivity screen EPHA5. Particulars: read-out: % inhibition of EPHA5.
Experiment [5] has as its target FGFR3 (Homo sapiens, UniProt P22607). In words: Kinase selectivity screen FGFR3. Particulars: read-out: % inhibition of FGFR3.
Experiment [6] addresses SRC (Homo sapiens, UniProt P12931). In words: Kinase selectivity screen SRC. Particulars: read-out: % inhibition of SRC.
In experiment [7] the target is MTOR (Homo sapiens, UniProt P42345). In words: Kinase selectivity screen MTOR. Particulars: read-out: % inhibition of MTOR.
The target in experiment [8] is KIT (Homo sapiens, UniProt P10721). In words: Kinase selectivity screen KIT. The note with it: read-out: % inhibition of KIT.
Chain of KIT (P10721 26-976, species assumed): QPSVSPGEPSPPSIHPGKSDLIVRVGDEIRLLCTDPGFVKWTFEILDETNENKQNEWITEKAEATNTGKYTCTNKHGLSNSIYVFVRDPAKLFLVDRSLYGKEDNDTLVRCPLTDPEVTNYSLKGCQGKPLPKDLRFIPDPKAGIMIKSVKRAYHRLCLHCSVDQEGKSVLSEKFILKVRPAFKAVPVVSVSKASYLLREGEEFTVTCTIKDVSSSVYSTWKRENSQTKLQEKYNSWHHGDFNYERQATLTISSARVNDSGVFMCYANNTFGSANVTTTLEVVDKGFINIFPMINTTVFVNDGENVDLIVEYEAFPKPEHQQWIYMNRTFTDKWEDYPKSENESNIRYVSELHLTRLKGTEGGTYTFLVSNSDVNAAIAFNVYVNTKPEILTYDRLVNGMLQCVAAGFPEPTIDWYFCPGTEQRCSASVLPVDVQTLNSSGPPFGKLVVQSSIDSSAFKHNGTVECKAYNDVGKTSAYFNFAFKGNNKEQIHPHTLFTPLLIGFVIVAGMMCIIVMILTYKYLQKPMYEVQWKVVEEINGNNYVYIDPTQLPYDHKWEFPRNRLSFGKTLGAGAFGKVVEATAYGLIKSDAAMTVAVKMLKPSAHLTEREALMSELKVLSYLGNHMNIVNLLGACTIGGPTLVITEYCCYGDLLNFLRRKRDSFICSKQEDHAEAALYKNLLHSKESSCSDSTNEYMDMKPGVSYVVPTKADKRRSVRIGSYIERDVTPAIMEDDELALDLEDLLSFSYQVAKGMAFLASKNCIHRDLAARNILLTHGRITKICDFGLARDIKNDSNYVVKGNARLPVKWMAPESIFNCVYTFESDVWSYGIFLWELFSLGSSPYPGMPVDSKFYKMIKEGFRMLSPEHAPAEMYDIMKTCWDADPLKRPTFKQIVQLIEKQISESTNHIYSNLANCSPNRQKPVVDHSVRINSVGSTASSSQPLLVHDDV
In experiment [9] the target is MKNK2 (Homo sapiens, UniProt Q9HBH9). In words: Kinase selectivity screen MKNK2. Format: biochemical. The note with it: 1 μM compound.
Chain of MKNK2 (Q9HBH9 whole entry): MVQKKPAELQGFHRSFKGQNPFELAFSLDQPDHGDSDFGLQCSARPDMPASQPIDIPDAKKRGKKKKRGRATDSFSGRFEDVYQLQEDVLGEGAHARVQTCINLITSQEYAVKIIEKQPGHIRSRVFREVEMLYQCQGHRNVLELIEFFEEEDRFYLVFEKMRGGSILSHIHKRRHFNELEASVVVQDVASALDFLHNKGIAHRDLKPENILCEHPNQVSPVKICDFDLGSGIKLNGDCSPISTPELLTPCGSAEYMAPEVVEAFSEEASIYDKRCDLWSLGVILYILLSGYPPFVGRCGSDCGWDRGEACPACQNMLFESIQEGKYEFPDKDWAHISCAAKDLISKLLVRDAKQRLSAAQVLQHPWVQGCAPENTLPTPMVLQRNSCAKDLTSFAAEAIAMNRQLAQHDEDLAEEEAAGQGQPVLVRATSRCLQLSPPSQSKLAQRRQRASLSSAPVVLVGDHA
For experiment [10], the target named is T2, Full-length human MNK2 (Homo sapiens, UniProt Q9HBH9, T379D).
T2 construct: GST (N); purchased Carna Biosciences 02-146; host or cells: baculovirus expression system
T2 sequence (Q9HBH9 whole entry T379D): as the sequence (Q9HBH9 whole entry) above, with T379D counted along it
In words: MNK2 biochemical IC50 assay (Caliper Mobility Shift Assay).

The target in experiment [11] is FER (Homo sapiens, UniProt P16591). Put plainly: Kinase selectivity screen FER. The note with it: read-out: % inhibition of FER.
Chain of FER (P16591 whole entry, species assumed): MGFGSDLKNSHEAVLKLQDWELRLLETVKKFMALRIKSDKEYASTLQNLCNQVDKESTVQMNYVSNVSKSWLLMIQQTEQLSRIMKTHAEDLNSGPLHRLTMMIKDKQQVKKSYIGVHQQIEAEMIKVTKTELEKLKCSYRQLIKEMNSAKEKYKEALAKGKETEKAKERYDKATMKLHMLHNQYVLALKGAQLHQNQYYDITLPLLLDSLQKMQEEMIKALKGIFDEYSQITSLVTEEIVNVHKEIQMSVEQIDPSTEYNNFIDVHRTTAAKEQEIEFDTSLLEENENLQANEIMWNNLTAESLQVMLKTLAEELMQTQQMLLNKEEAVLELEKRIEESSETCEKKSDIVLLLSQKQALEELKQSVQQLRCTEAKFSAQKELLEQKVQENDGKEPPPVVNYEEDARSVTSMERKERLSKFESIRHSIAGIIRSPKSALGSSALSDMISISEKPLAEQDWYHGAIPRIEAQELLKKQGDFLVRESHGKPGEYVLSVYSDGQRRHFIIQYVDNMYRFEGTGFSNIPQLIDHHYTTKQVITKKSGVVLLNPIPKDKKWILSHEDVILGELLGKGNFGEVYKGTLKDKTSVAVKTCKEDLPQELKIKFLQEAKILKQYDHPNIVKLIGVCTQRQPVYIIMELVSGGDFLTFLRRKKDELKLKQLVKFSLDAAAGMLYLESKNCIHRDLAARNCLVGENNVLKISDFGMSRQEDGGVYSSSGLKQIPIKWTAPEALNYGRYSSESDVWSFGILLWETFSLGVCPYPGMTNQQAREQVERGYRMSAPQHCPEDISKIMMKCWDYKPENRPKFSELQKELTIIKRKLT
Experiment [12] concerns the target ABL1 (Homo sapiens, UniProt P00519). In words: Kinase selectivity screen ABL1. The note with it: read-out: % inhibition of ABL1.
Experiment [13] addresses ROCK2 (Homo sapiens, UniProt O75116). In words: Kinase selectivity screen ROCK2. The note with it: read-out: % inhibition of ROCK2.
Experiment [14] has as its target PTK2 (Homo sapiens, UniProt Q05397). Put plainly: Kinase selectivity screen PTK2. The note with it: read-out: % inhibition of PTK2.
The target in experiment [15] is INSRR (Homo sapiens, UniProt P14616). Put plainly: Kinase selectivity screen INSRR. The note with it: read-out: % inhibition of INSRR.
For experiment [16], the target named is T3, PRAK (Homo sapiens, UniProt Q8IW41).
T3 sequence (Q8IW41 1-473): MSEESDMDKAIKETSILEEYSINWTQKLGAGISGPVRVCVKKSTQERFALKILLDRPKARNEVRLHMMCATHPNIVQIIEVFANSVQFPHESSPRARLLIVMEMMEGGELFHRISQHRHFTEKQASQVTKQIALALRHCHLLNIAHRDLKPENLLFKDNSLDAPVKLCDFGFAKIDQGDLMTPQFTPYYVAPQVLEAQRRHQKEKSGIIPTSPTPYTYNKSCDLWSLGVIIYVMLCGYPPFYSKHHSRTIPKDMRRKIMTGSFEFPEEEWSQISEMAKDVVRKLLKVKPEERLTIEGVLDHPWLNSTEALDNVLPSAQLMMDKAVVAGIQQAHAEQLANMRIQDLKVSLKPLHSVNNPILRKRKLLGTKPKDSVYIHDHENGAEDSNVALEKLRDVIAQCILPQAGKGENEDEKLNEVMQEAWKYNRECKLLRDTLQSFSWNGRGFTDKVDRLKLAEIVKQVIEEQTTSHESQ
In words: Kinase selectivity screen PRAK. The note with it: read-out: % inhibition of PRAK.

Chain of EPHA5 (P54756 25-1037, species assumed): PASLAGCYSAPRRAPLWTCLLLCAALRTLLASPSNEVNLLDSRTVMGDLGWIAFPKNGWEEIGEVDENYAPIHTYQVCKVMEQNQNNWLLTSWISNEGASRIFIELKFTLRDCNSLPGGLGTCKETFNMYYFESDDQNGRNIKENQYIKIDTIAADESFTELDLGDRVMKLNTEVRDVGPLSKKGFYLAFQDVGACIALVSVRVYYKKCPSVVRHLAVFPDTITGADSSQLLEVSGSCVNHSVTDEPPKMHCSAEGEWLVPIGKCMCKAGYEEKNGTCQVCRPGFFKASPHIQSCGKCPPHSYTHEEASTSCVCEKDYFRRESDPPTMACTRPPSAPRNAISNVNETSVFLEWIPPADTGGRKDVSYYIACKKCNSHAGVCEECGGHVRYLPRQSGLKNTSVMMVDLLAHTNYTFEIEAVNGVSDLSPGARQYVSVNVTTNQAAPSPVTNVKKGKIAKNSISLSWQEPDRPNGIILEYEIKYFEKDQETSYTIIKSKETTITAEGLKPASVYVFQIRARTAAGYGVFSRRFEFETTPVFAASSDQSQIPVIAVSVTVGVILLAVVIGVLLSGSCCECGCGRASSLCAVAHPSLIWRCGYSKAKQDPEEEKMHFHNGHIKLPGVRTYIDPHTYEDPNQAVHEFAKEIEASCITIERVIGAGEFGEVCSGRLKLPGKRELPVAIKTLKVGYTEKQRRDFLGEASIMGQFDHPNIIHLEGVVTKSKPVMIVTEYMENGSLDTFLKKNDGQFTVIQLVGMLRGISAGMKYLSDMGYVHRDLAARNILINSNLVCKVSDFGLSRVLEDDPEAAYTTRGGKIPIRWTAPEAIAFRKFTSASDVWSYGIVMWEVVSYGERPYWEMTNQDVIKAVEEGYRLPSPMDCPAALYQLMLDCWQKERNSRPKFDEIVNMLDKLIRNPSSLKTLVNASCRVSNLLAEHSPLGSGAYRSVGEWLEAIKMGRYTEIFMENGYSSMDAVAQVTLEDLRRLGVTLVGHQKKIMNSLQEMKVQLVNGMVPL
Chain of SRC (P12931 whole entry): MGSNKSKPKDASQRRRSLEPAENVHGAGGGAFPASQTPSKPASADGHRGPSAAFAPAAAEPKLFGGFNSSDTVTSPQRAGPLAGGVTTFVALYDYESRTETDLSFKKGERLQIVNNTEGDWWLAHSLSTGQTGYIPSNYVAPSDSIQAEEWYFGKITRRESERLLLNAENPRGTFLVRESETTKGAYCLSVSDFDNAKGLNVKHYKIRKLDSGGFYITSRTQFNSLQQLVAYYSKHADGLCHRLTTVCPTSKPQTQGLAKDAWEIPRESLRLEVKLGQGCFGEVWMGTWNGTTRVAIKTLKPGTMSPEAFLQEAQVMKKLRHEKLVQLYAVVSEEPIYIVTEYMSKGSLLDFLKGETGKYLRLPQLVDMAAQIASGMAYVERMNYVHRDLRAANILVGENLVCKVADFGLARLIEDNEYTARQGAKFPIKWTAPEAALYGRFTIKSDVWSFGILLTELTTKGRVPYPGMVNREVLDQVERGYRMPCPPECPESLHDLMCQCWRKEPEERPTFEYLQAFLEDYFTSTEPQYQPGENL

One may read the inhibition as the percentage by which the read-out fell short of the control. For orientation: IC50 means the concentration that gives 50% inhibition. `CN(C)CCCNC(=O)c1nc2c(N3CCc4cc(F)ccc43)ncnc2s1` [Example 64, N-[3-(dimethylamino)propyl]-7-(5-fluoroindolin-1-yl)thiazolo[5,4-d]pyrimidine-2-carboxamide]: the inhibition at 1 µM in experiment [1] was 0%; in experiment [2], 35%; in experiment [3] it was 1%; in [4], 0%; in [5], 3%; in experiment [6], 0%. The inhibition at 1 µM was 3% in experiment [7]; 0% in [8]; 96% in experiment [9]; 0% in experiment [11]; 4% in experiment [12]; 18% in experiment [13]. For the same molecule, the inhibition at 1 µM in [14], in experiment [15] and in experiment [16] was 0% throughout. In addition, in experiment [10], the concentration for half-maximal inhibition (IC50) is 2 nM.
In the case of `CC(C)Oc1cc(F)ccc1Nc1ncnc2sc(C(=O)NCC3CCNCC3)nc12` [Example 10, 7-(4-fluoro-2-isopropoxy-anilino)-N-(4-piperidylmethyl)thiazolo[5,4-d]pyrimidine-2-carboxamide], the inhibition at 1 µM in [1] was 0%; in experiment [2] it was 0%; in [3], 11%; in experiment [4], 11%; in experiment [5], 0%; in experiment [6] it was 5%. The inhibition at 1 µM worked out at 4% in experiment [7]; 0% in experiment [8]; 81% in experiment [9]; 4% in experiment [11]; 4% in experiment [12]; 1% in experiment [13]. The results for the inhibition at 1 µM in experiment [14], in [15] and in experiment [16] were 16%, 10% and 0%, respectively. Moreover, the half-maximal inhibitory concentration (IC50) in [10] was 50.1 nM.
In the case of `O=C(NCC1CCNCC1)c1nc2c(N3CCc4cc(F)ccc43)ncnc2s1` [Example 58, 7-(5-fluoroindolin-1-yl)-N-(4-piperidylmethyl)thiazolo[5,4-d]pyrimidine-2-carboxamide], the inhibition at 1 µM was found to be 10% in experiment [1]; 6% in experiment [2]; 24% in experiment [3]; 0% in [4]; 0% in [5]; 0% in experiment [6]. Further, the inhibition at 1 µM in [7] was 0%; in [8], 7%; in experiment [9], 93%; in [11] it was 0%; in experiment [12] it was 6%; in experiment [13], 8%. Moreover, the results for the inhibition at 1 µM in experiment [14], in [15] and in [16] were 0%, 13% and 0%, respectively. Besides, the 50% inhibitory concentration (IC50) in experiment [10] was 3.98 nM.
